Values joined by “and” are separate entries in the source; they are usually repeats but may differ in a detail not shown here. Identical values can stand only once. Toxic doses and inconclusive results are not listed. The calls were made as follows: active = survival T/C of 150% or more; inactive = T/C below 125% in these data.
System: CD2F1 mice, L1210 leukemia ip, survival T/C
Assay: NCI In Vivo Anticancer Drug Screen. Data for tumor model L1210 Leukemia (intraperitoneal) in CD2F1 (CDF1) mice
Details: higher = longer survival
Procedure, shortened: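 Read-out first: treated-group measurement over vehicle-control measurement, expressed as a ratio. Animals bore a transplanted tumor line and were dosed with compound or vehicle.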

[1] = endpoint: mean survival time, dose: 50.0 mg/kg/injection, schedule: Q01DX009 (ip), vehicle: saline with Tween-80
[2] = endpoint: mean survival time, dose: 100.0 mg/kg/injection, schedule: Q01DX009 (ip), vehicle: saline with Tween-80
[3] = endpoint: mean survival time, dose: 200.0 mg/kg/injection, schedule: Q01DX009 (ip), vehicle: saline with Tween-80
[4] = endpoint: mean survival time, dose: 400.0 mg/kg/injection, schedule: Q01DX009 (ip), vehicle: saline with Tween-80
[5] = endpoint: mean survival time, dose: 100.0 mg/kg/injection, schedule: Q04DX002 (ip), vehicle: saline with Tween-80
[6] = endpoint: mean survival time, dose: 200.0 mg/kg/injection, schedule: Q04DX002 (ip), vehicle: saline with Tween-80
[7] = endpoint: mean survival time, dose: 400.0 mg/kg/injection, schedule: Q04DX002 (ip), vehicle: saline with Tween-80
[8] = endpoint: mean survival time, dose: 100.0 mg/kg/injection, schedule: Q04DX003 (ip), vehicle: saline with Tween-80
[9] = endpoint: mean survival time, dose: 200.0 mg/kg/injection, schedule: Q04DX003 (ip), vehicle: saline with Tween-80
[10] = endpoint: mean survival time, dose: 400.0 mg/kg/injection, schedule: Q04DX003 (ip), vehicle: saline with Tween-80
[11] = endpoint: mean survival time, dose: 100.0 mg/kg/injection, schedule: Q01DX009 (ip), vehicle: other
[12] = endpoint: mean survival time, dose: 200.0 mg/kg/injection, schedule: Q01DX009 (ip), vehicle: other
[13] = endpoint: mean survival time, dose: 100.0 mg/kg/injection, schedule: Q01DX001 (ip), vehicle: saline with Tween-80
[14] = endpoint: mean survival time, dose: 200.0 mg/kg/injection, schedule: Q01DX001 (ip), vehicle: saline with Tween-80
[15] = endpoint: mean survival time, dose: 25.0 mg/kg/injection, schedule: Q01DX009 (ip), vehicle: saline with Tween-80
[16] = endpoint: mean survival time, dose: 100.0 mg/kg/injection, schedule: Q04DX003 (ip), vehicle: other
[17] = endpoint: mean survival time, dose: 100.0 mg/kg/injection, schedule: Q01DX001 (ip), vehicle: saline
[18] = endpoint: mean survival time, dose: 200.0 mg/kg/injection, schedule: Q01DX001 (ip), vehicle: saline
[19] = endpoint: mean survival time, dose: 400.0 mg/kg/injection, schedule: Q01DX001 (ip), vehicle: saline

Measured: T/C

O=[N+]([O-])c1ccc(OP2(Oc3ccc([N+](=O)[O-])cc3)=NP(Oc3ccc([N+](=O)[O-])cc3)(Oc3ccc([N+](=O)[O-])cc3)=NP(Oc3ccc([N+](=O)[O-])cc3)(Oc3ccc([N+](=O)[O-])cc3)=NP(Oc3ccc([N+](=O)[O-])cc3)(Oc3ccc([N+](=O)[O-])cc3)=N2)cc1
inactive: endpoint: mean survival time, dose: 25.0 mg/kg/injection, schedule: Q01DX009 (ip), vehicle: saline 100 % of control | endpoint: mean survival time, dose: 50.0 mg/kg/injection, schedule: Q01DX009 (ip), vehicle: saline 100 % of control | endpoint: mean survival time, dose: 100.0 mg/kg/injection, schedule: Q01DX009 (ip), vehicle: saline 100 % of control | endpoint: mean survival time, dose: 100.0 mg/kg/injection, schedule: Q04DX003 (ip), vehicle: saline 102 % of control | endpoint: mean survival time, dose: 200.0 mg/kg/injection, schedule: Q04DX003 (ip), vehicle: saline 100 % of control | endpoint: mean survival time, dose: 400.0 mg/kg/injection, schedule: Q04DX003 (ip), vehicle: saline 96 % of control

C1CCC2(CC1)NCCO2
inactive: endpoint: mean survival time, dose: 100.0 mg/kg/injection, schedule: Q01DX009 (ip), vehicle: saline sonified 96 % of control | endpoint: mean survival time, dose: 200.0 mg/kg/injection, schedule: Q01DX009 (ip), vehicle: saline sonified 93 % of control

Cc1cc(C)[nH]c(=S)n1
inactive: [1] 100 % of control | [2] 96 % of control | [3] 96 % of control

Nc1nc2c(c(=O)[nH]1)N1CCN(c3ccc(C(=O)NC(CCC(=O)O)C(=O)O)cc3)CC1CN2 (stereo not given)
inactive: endpoint: mean survival time, dose: 100.0 mg/kg/injection, schedule: Q01DX001 (ip), vehicle: sodium bicarbonate 100 % of control | endpoint: mean survival time, dose: 200.0 mg/kg/injection, schedule: Q01DX001 (ip), vehicle: sodium bicarbonate 100 % of control | endpoint: mean survival time, dose: 400.0 mg/kg/injection, schedule: Q01DX001 (ip), vehicle: sodium bicarbonate 86 % of control

O=C(Nc1ccc(Cl)cc1)Nc1ccccc1F
inactive: [2] 97 % of control | [3] 103 % of control | [4] 105 % of control

CC(C)c1ccc2c(c1)CCC(C(Cl)Cl)C2(C)C (stereo not given)
inactive: [5] 95 % of control | [6] 111 % of control | [7] 100 % of control

O=C1C=CC(=O)N1c1cccc(N2C(=O)C=CC2=O)c1
inactive: endpoint: mean survival time, dose: 4.0 mg/kg/injection, schedule: Q01DX009 (ip), vehicle: saline 96 % of control | endpoint: mean survival time, dose: 8.0 mg/kg/injection, schedule: Q01DX009 (ip), vehicle: saline 106 % of control

COc1ccc(-n2cnnn2)cc1
inactive: [8] 101 % of control | [9] 106 % of control | [10] 112 % of control

OCC(O)C(O)C(O)C(O)/C=N/O (stereo not given)
inactive: [1] 97 % of control | [2] 97 % of control | [3] 104 % of control

Cc1ccc(S(=O)(=O)O/N=C2/CCSc3ccccc32)cc1
inactive: endpoint: mean survival time, dose: 100.0 mg/kg/injection, schedule: Q01DX001 (ip), vehicle: acetone 100 % of control | endpoint: mean survival time, dose: 200.0 mg/kg/injection, schedule: Q01DX001 (ip), vehicle: acetone 97 % of control | endpoint: mean survival time, dose: 400.0 mg/kg/injection, schedule: Q01DX001 (ip), vehicle: acetone 97 % of control

Cc1cc(OC(=O)Nc2cccc(Cl)c2Cl)ccc1Cl
inactive: [11] 101 % of control | [12] 103 % of control | endpoint: mean survival time, dose: 400.0 mg/kg/injection, schedule: Q01DX009 (ip), vehicle: other 106 % of control

O=C(Cn1ccc(=O)[nH]c1=O)c1c[nH]c2ccccc12
inactive: [5] 108 % of control | [6] 108 % of control | [7] 104 % of control

O=c1cc(-c2ccccc2)nc2c(Cl)cc(Cl)cn12
inactive: [13] 96 % of control | [14] 93 % of control | endpoint: mean survival time, dose: 400.0 mg/kg/injection, schedule: Q01DX001 (ip), vehicle: saline with Tween-80 96 % of control

O=[N+]([O-])c1ccc(C[N+]23CCN(CC2)CC3)cc1
inactive: [13] 100 % of control | [14] 106 % of control

Cc1cc(O)c(O)c([N+](=O)[O-])c1
inactive: [2] 95 % of control | [3] 97 % of control | [4] 97 % of control

CC(C)(C)C1=CC(=O)C(C#N)=C(C#N)C1=O
inactive: [15] 96 % of control

CCCCCCCCCCCCNC(=O)OCCN(CCOC(=O)NCCCCCCCCCCCC)C(=O)COc1ccc(Cl)cc1
inactive: [16] 86 % of control | endpoint: mean survival time, dose: 200.0 mg/kg/injection, schedule: Q04DX003 (ip), vehicle: other 91 % of control | endpoint: mean survival time, dose: 400.0 mg/kg/injection, schedule: Q04DX003 (ip), vehicle: other 93 % of control

Clc1ccc2ccccc2c1C(Cl)Cl
inactive: [15] 96 % of control | [1] 95 % of control | [2] 98 % of control | [8] 91 % of control | [3] 102 % of control | [9] 98 % of control | [4] 102 % of control | [10] 93 % of control

OB(O)Oc1ccc(Br)cc1
inactive: endpoint: mean survival time, dose: 50.0 mg/kg/injection, schedule: Q01DX009 (ip), vehicle: other 95 % of control | [11] 91 % of control | [12] 102 % of control

COC1OC(COC(=O)c2ccccc2)C(OC(=O)c2ccccc2)C(OC(=O)c2ccccc2)C1OC(=O)c1ccccc1 (stereo not given)
inactive: [8] 95 % of control | [9] 91 % of control | [10] 87 % of control

NCc1ccccc1
inactive: [2] 96 % of control | endpoint: mean survival time, dose: 100.0 mg/kg/injection, schedule: Q04DX003 (ip), vehicle: acetone 110 % of control | [8] 99 % of control | [3] 100 % of control | endpoint: mean survival time, dose: 200.0 mg/kg/injection, schedule: Q04DX003 (ip), vehicle: acetone 108 % of control | [9] 99 % of control | [4] 98 % of control | endpoint: mean survival time, dose: 400.0 mg/kg/injection, schedule: Q04DX003 (ip), vehicle: acetone 97 % of control | [10] 97 % of control

Cc1ccc(C(=O)NN)cc1
inactive: endpoint: mean survival time, dose: 25.0 mg/kg/injection, schedule: Q04DX003 (ip), vehicle: saline with Tween-80 96 % of control | endpoint: mean survival time, dose: 50.0 mg/kg/injection, schedule: Q04DX003 (ip), vehicle: saline with Tween-80 96 % of control | [8] 95 % of control and 107 % of control

CC1(C#N)CCC(=O)N1 (stereo not given)
inactive: [17] 95 % of control | [18] 95 % of control | [19] 93 % of control

Cc1ccc(S(=O)(=O)N/N=C/Cc2c(C)cc(C)cc2C)cc1
inactive: endpoint: median survival time, dose: 25.0 mg/kg/injection, schedule: Q04DX002 (ip), vehicle: saline with Tween-80 100 % of control | endpoint: median survival time, dose: 50.0 mg/kg/injection, schedule: Q04DX002 (ip), vehicle: saline with Tween-80 100 % of control | endpoint: median survival time, dose: 100.0 mg/kg/injection, schedule: Q04DX002 (ip), vehicle: saline with Tween-80 100 % of control | endpoint: median survival time, dose: 200.0 mg/kg/injection, schedule: Q04DX002 (ip), vehicle: saline with Tween-80 110 % of control

Oc1ccccc1C=NC1CCCCC1N=Cc1ccccc1O.[Ni] (stereo not given)
inactive: endpoint: mean survival time, dose: 50.0 mg/kg/injection, schedule: Q04DX002 (ip), vehicle: saline with Tween-80 89 % of control | [5] 97 % of control | [6] 97 % of control | [7] 93 % of control

O=S1(=O)CC23C=CC=CC2(CCCC3)C1Cl (stereo not given)
inactive: [16] 94 % of control

O=c1[nH]c(=O)n(C2CCOC2)cc1Br (stereo not given)
inactive: [17] 103 % of control | [18] 100 % of control | [19] 103 % of control

— PubChem BioAssay AID256 (DTP/NCI, 2004)
